Measured values from patent US20100249064A1, “METHODS AND COMPOSITIONS FOR TREATING DISEASES AND CONDITIONS INVOLVING HIGHER MOLECULAR WEIGHT HYALURONAN” (University of Chicago, priority 2007, published 2010).

Tests used:
[1] = tested on: Human pulmonary artery EC; assay: Transendothelial electrical resistance (TER) of HA-treated EC monolayers, Example 1; assay type: cell-based; details: for change in transmonolayer electrical resistance (TER): 1 nM, 10 nM or 100 nM HA, serum starved EC; for effect of pretreatment of HA by boiling or proteinase K digestion on HA-induced EC TER: HA boiled or proteinase K digested; for effect of hyaluronidase SD treatment of HA on HA-induced EC TER: HA treated with hyaluronidase SD
Procedure: Measurement of TransEC Electrical Resistance (TER)—EC were grown to confluence in polycarbonate wells containing evaporated gold microelectrodes. TER measurements were performed using an electrical cell-substrate impedance sensing system (Applied Biophysics, Troy, N.Y.) as described (Garcia et al., 2001). TER values from each microelectrode were pooled at discrete time points and plotted versus time as the mean±S.E.

[2] = tested on: HABP2; assay: HABP2 protein expression in EC by immunoblotting; assay type: cell-based, human; details: 100 nM HA, EC lysates, immunoblot
Procedure: Immunoblotting. Proteins in the EC lysates or mouse lung homogenates were solubilized in solubilization buffer, separated on SDS-PAGE, and analyzed by immunoblotting with specific antisera and HRP conjugated secondary antibody with enhanced chemiluminescence detection (Amersham Biosciences).
Treatment with LPS, low and high MW hyaluronan. EC were treated with 1.0 μg/ml LPS, 100 nM HMW-HA (˜1 million Daltons) or 100 nM LMW-HA (˜2,500 Daltons) for 24 hours and EC media and lysates were obtained.
Cell culture preparation and treatment. Human pulmonary microvascular EC (HPMVEC) (Cambrex), grown in EBM-2 complete medium (Cambrex) at 37° C. in a humidified atmosphere of 5% CO2, 95% air, with passages 6-10 used for experimentation will be treated with or without 1.0 μg/ml LPS, 100 nM HMW-HA and/or 100 nM LMW-HA in the presence or absence of exogenous purified recombinant HABP2 polyanion binding domain and/or C1INH (Novus Biologicals), HABP2 and/or C1INH overexpression vector or siRNA (scramble, HABP2, C1INH, PAR-1, PAR-2, PAR-3, PAR-4, tenascin-C or perlecan) or the potent hyaluronidase inhibitor, L-ascorbic acid 6-hexadecanoate (Botzki et al., 2004) (Sigma). Extracellular media and/or treated EC will either be analyzed for protein expression, HABP2 protease activity, hyaluronidase activity or Trans-endothelial Electrical Resistance (TER). […]

[3] = tested on: Human pulmonary EC; assay: TER, Example 5; assay type: cell-based; details: for change in TER: human pulmonary EC, Example 5
Procedure: Measurement of TransEC Electrical Resistance (TER). EC were grown to confluence in polycarbonate wells containing evaporated gold microelectrodes, and TER measurements performed using an electrical cell-substrate impedance sensing system (Applied Biophysics, Troy, N.Y.) as previously described (Garcia et al., 2001). TER values from each microelectrode were pooled at discrete time points and plotted versus time as the mean±S.E.

[4] = tested on: HPMVEC; assay: EC migration (transwell); assay type: cell-based, human; details: 100 nM HA with or without 100 nM VEGF, or siRNA 48 hours then VEGF; 18 hours
Procedure: Determination of the role of HMW-HA/CD44 interactions in regulating hyaluronidase activity and angiogenesis in vitro. Human pulmonary microvascular EC (HPMVEC) (Cambrex), grown in EBM-2 complete medium (Cambrex) at 37° C. in a humidified atmosphere of 5% CO2, 95% air, with passages 6-10 used for experimentation was treated with or without 100 nM HMW-HA and/or 100 nM VEGF in the presence or absence of CD44 isoform-specific blocking antibodies (EMD Biosciences), siRNA (scramble, CD44, Hyal-1, Hyal-2, Hyal-3 or Hyal-4) and the potent hyaluronidase inhibitor, L-ascorbic acid 6-hexadecanoate (Botzki et al., 2004) (Sigma). […] Treated EC will either be analyzed for protein expression, hyaluronidase activity or VEGF-induced proliferation, migration or tube formation. […] Cells from the upper and lower chamber were quantitated using the CellTiter96™ MTS assay (Promega, San Luis Obispo, Calif.) and read at 492 nm. % migration was defined as the # of cells in the lower chamber […] the number of cells in both the upper and lower chamber. Each assay was set up in triplicate, repeated at least five times and analyzed statistically by Student's t test (with statistical significance set at P<0.05). […] The in vitro cell proliferation assay was analyzed by measuring increases in cell number using the CellTiter96™ MTS assay (Promega, San Luis Obispo, Calif.) and read at 492 nm. […]

Substance | change in transmonolayer electrical resistance (TER) [1] | effect of pretreatment of HA by boiling or proteinase K digestion on HA-induced EC TER [1] | effect of hyaluronidase SD treatment of HA on HA-induced EC TER ([1]; listed as High MW HA) | HABP2 protein expression in EC ([2]; listed as high MW hyaluronan) | time at which HMW-HA-induced increase in TER reached plateau [3] | protection from LPS-induced EC barrier disruption (TER) ([3]; HMW-HA (100 ng/ml), at 6 hours) | change in TER ([3]; listed as High MW HA) | EC migration (% Migration) [4] | effect of hyaluronidase SD treatment of HA on HA-induced EC TER ([1]; listed as Low MW HA) | HABP2 protein expression in EC ([2]; listed as low molecular weight (MW) hyaluronan) | change in TER ([3]; listed as low MW HA)
hyaluronan [HMW-HA] | gradual and sustained rise in transmonolayer electrical resistance (TER) in a dose-dependent fashion | little effect | blocked the effects of High MW HA | reduced | ~3 h | protects from LPS-induced EC barrier disruption | dose-dependent increase in TER | inhibited VEGF-induced hyaluronidase expression, EC proliferation (A) and migration (B) | – | – | –
hyaluronan [LMW-HA, reference compound] | biphasic changes in TER with an initial rapid increase in barrier enhancement followed by significant and prolonged barrier disruption | little effect | – | – | – | – | – | promotes EC proliferation and migration | blocked the effects of Low MW HA | significantly enhanced | biphasic response ultimately leading to EC barrier disruption
